Experimental data reported in patent US20060110790A1, “Expression system for large functional proteins” (priority 2002, published 2006).

How the values were obtained:
[1] = target: T1, individually expressed N half of ABCR containing 1D4 epitope tag (N*) (Homo sapiens, UniProt P78363); experiment: Retinal-stimulated ATPase activity of purified protein reconstituted in lipid vesicles; format: biochemical; conditions: individually expressed in COS-1 cells, 1D4-tagged, 50 μM [α32P]ATP
T1 construct: The cDNAs coding for the N-half (amino acids 1-1325) and C-half (amino acids 1326-2273) of ABCR; made in house; host or cells: COS-1 cells
T1 sequence (P78363 1-1325): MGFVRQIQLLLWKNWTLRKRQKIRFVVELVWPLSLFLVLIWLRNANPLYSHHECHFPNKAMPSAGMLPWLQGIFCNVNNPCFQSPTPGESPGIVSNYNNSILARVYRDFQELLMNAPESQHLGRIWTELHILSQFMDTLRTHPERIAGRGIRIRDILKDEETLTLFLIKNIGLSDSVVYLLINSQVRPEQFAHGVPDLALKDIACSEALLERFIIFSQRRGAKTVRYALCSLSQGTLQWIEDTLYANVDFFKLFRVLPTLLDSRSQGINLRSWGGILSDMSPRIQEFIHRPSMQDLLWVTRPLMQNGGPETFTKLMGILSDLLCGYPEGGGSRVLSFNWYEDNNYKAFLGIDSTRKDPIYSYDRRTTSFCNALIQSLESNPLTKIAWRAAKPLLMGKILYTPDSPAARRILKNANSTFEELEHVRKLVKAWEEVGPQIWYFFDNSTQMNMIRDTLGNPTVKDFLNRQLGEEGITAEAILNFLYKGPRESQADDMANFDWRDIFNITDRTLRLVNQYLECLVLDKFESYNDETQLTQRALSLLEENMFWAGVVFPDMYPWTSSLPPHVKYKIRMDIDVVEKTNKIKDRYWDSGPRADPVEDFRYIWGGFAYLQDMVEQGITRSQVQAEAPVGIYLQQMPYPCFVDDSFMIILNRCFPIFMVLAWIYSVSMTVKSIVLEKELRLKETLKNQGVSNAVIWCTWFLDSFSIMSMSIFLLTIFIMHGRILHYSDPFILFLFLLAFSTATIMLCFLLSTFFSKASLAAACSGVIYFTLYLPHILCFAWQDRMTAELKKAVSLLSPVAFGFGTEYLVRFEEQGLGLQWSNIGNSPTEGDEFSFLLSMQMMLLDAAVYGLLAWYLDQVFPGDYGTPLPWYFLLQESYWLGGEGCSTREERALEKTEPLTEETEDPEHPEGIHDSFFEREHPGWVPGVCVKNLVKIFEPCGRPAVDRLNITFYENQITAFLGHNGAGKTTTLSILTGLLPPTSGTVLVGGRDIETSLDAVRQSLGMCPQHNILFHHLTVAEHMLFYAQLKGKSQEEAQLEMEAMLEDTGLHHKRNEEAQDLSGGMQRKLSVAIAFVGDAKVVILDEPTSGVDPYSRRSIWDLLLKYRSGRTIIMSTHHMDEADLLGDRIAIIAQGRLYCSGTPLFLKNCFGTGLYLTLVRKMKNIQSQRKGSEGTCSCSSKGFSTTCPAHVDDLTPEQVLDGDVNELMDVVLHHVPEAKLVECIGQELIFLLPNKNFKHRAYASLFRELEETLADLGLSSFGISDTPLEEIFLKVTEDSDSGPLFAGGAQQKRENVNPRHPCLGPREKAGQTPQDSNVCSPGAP
Method: Membranes (from two 10 cm dishes) were solubilized in 0.5 ml of 1% Triton-X100 in Buffer A (140 mM NaCl, 20 mM Tris-HCl, pH 7.4) for 20 min on ice. For ATPase assays, the membrane preparation step was omitted and the cell suspension was solubilized directly in Buffer B (10 mg/ml soybean phospholipids, 10% glycerol, 1 mM dithiothreitol, 100 mM NaCl, 3 mM MgCl2, 50 mM NaHEPES, pH 7.4) containing 18 mM CHAPS. The supernatant after a 10 min centrifugation at 40,000 rpm (TLA100.4 rotor) was mixed with 50 μl Rim3F4 Sepharose 2B for 1 h at 4° C. The beads were washed 6 times in Buffer A containing 0.2% Triton X-100 or Buffer B containing 10 mM CHAPS and eluted with 4% SDS (for electrophoresis) or 0.2 mg/ml Rim3F4 peptide (for reconstitution and determination of ATPase activity). Purified protein (24 μl) was incubated with 6 μl of 50 mg/ml lipid (1:1 mixture of dioleoylphosphatidylethanolamine and brain polar lipid, by weight) and 3 μl n-octylglucoside for 30 min on ice. The mixture was diluted rapidly with 200 μl of Buffer C (1 mM dithiothreitol, 140 mM NaCl, 25 mM NaHEPES, pH 7.4) and passed through a 200 μl Extracti-gel column (Pierce). The flow-through containing the reconstituted protein was used for determination of ATPase activity.
ATPase activity was measured as described previously (Ahn, J., Wong, J. T., and Molday, R. S. (2000) J Biol Chem 275(27), 20399-405) using 50 μM [α^32P]ATP and thin layer chromatography. The all-trans retinal concentration was determined spectrophotometrically (λ383 nm=42.88 mM^−1 cm^−1). Protein concentration was estimated from the eluate before reconstitution by laser densitometry of Coomassie blue stained gels using bovine serum albumin as a standard. […] Direct protein measurements after reconstitution by densitometry of Western blots was about half of that in the eluate. […]
(§1) ATPase Activity of Expressed N and C Halves—The basal and retinal activated ATPase activity of full-length ABCR and the N and C halves individually or co-expressed in COS-1 cells was determined after immunoaffinity purification and reconstitution into lipid vesicles. […]

full-length ABCR = full-length ABCR (Homo sapiens, UniProt P78363); experiment: as above; format: biochemical; parameters: Membranes from transfected cells expressing either full-length ABCR (lanes 1 & 2) or co-expressing the N and C halves; expressed in transfected cells; host or cells: transfected cells (COS-1 or EBNA293); conditions: expressed in COS-1 cells, purified on Rim 3F4 column, 50 μM [α32P]ATP
Method: Membranes (from two 10 cm dishes) were solubilized in 0.5 ml of 1% Triton-X100 in Buffer A (140 mM NaCl, 20 mM Tris-HCl, pH 7.4) for 20 min on ice. For ATPase assays, the membrane preparation step was omitted and the cell suspension was solubilized directly in Buffer B (10 mg/ml soybean phospholipids, 10% glycerol, 1 mM dithiothreitol, 100 mM NaCl, 3 mM MgCl2, 50 mM NaHEPES, pH 7.4) containing 18 mM CHAPS. The supernatant after a 10 min centrifugation at 40,000 rpm (TLA100.4 rotor) was mixed with 50 μl Rim3F4 Sepharose 2B for 1 h at 4° C. The beads were washed 6 times in Buffer A containing 0.2% Triton X-100 or Buffer B containing 10 mM CHAPS and eluted with 4% SDS (for electrophoresis) or 0.2 mg/ml Rim3F4 peptide (for reconstitution and determination of ATPase activity). […]
ATPase activity was measured as described previously (Ahn, J., Wong, J. T., and Molday, R. S. (2000) J Biol Chem 275(27), 20399-405) using 50 μM [α^32P]ATP and thin layer chromatography. The all-trans retinal concentration was determined spectrophotometrically (λ383 nm=42.88 mM^−1 cm^−1). […]
as §1

Chain of full-length ABCR (P78363 whole entry): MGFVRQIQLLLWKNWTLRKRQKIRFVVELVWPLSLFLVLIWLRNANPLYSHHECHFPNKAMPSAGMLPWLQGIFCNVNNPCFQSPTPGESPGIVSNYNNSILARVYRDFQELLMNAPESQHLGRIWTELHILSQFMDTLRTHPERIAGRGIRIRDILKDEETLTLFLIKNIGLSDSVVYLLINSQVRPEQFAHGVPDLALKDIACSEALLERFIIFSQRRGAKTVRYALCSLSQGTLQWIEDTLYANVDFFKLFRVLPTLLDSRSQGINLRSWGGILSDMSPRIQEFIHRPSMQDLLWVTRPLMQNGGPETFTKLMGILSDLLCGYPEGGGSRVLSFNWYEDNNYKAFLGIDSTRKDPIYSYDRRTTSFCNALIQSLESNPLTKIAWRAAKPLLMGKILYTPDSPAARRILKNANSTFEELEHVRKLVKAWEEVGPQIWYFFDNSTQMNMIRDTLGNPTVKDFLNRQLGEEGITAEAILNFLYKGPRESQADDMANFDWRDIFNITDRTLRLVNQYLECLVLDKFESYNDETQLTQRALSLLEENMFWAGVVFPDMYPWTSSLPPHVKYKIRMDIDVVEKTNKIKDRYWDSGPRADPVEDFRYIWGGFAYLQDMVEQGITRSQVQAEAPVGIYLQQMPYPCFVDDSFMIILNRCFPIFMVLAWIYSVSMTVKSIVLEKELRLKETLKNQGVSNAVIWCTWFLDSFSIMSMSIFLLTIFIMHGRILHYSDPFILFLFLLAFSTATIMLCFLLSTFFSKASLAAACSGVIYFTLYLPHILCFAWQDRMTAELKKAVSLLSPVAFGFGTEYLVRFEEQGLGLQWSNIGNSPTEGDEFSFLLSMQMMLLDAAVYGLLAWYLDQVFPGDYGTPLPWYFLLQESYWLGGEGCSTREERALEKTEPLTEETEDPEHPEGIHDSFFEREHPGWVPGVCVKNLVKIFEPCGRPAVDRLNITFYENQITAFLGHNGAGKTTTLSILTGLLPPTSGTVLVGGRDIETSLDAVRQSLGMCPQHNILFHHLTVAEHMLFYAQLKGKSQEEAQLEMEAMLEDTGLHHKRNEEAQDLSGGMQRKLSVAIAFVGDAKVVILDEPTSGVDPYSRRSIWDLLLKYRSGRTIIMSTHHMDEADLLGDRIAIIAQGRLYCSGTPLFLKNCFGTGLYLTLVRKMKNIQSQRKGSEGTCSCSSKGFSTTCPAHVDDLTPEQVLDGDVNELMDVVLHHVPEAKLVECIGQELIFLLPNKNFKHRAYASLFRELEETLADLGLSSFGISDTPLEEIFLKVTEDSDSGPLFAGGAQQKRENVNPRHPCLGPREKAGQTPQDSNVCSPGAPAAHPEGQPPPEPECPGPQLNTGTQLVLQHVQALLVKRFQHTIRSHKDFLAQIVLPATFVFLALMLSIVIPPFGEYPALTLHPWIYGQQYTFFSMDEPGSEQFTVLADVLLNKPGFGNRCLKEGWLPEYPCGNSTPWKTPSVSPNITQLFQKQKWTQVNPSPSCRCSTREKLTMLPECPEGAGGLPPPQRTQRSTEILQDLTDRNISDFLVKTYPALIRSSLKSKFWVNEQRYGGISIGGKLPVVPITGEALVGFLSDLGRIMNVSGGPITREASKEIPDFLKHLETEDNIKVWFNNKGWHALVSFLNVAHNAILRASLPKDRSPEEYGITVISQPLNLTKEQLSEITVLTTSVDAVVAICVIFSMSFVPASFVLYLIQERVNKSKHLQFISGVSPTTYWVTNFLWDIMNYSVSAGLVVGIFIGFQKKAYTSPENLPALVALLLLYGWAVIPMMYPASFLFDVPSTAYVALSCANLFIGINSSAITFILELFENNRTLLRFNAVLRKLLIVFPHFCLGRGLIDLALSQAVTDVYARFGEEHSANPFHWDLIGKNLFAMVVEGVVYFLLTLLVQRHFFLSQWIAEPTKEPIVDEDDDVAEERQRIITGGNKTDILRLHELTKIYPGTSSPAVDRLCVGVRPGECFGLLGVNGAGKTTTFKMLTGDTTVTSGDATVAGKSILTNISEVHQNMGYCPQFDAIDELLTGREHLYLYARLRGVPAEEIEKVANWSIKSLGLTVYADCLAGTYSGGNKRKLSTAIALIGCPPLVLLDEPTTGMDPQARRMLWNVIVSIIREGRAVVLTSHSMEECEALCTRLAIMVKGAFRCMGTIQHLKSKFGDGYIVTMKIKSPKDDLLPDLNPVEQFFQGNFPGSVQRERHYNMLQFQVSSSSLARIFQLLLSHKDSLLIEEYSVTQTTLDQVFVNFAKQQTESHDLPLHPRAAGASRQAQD

stimulation of ATPase activity [1]: not stimulated
stimulation of ATPase activity (full-length ABCR): 1-2 fold
SMILES: CC1=C(/C=C/C(C)=C/C=C/C(C)=C/C=O)C(C)(C)CCC1 [all-trans retinal]
